In PubChem BioAssay AID1981 (Southern Research Specialized Biocontainment Screening …, 2009) one finds IC50 data, which are given here for 92 molecules.

For orientation: IC50 means the midpoint of a concentration-inhibition curve.

The test system of this assay is S. Typhimurium PhoP-promoter GFP reporter counterscreen, fluorescence, 4 h. Description: S. Typhimurium GFP fluorescence dose response in modified counterscreen for PhoP regulon inhibitor project (AID 1981). (In general: The purpose of a counterscreen is to sort out artefacts and off-target activity.)
Regarding `Fc1ccc(CCNCc2ccc(Cl)c(Cl)c2)cc1`, the IC50 is 109 µM.

As for `O=C(O)C1Nc2c(O)cccc2C2C=CCC12` (configuration not stated), the IC50 was 64.9 µM.

In the case of `Cc1cc(C(C)(C)CC(C)(C)C)ccc1OCCOCC[N+](C)(C)Cc1ccccc1`, the IC50 is 34.6 µM.

With `N=c1n(Cc2ccccc2)c2ccccc2n1CC(O)COc1ccc(Cl)cc1Cl` (configuration not stated), the half-maximal inhibitory concentration (IC50) was 49.4 µM.

`CC(C)CCNCC(O)CON=C1c2ccccc2-c2ccccc21` (configuration not stated): the IC50 was 136 µM.

Turning to `O=C(Nc1ccccc1)Nc1ncc([N+](=O)[O-])s1`, the IC50 is 53.4 µM.

For the molecule `Cc1[nH]n(-c2ccccc2)c(=O)c1C(C[N+](=O)[O-])c1ccc(F)cc1` (configuration not stated), the IC50 is 109 µM.

Turning to `C=CC#CC[N+]1(CC#Cc2ccccc2)CCOCC1`, the IC50 was 30.3 µM.

For the molecule `CCCCCCCCn1c2c(c(=N)c3ccccc31)CCC2`, the 50% inhibitory concentration (IC50) was 78.7 µM.

Consider `Nc1ccc2c(c1)C(=O)C(=O)c1ccccc1-2`, for which the 50% inhibitory concentration (IC50) is 10.9 µM.

In the case of `Oc1cc(Cl)ccc1Oc1ccc(Cl)cc1Cl`, the concentration for half-maximal inhibition (IC50) was 0.68 µM.

As for `O=S(=O)(Nc1cc(Sc2cccc3cccnc23)c(O)c2ccccc12)c1ccc(F)cc1`, the IC50 was 57.2 µM.

`CC[n+]1c(/C=C/C=C/c2ccc(N(C)C)cc2)sc2ccccc21`: the IC50 is 74 µM.

Consider `CCCCCCCNC(=O)C1(CC2CC(c3cccc(Br)c3)=NO2)CCNCC1` (configuration not stated), for which the IC50 was 58.7 µM.

In the case of `CCCCCOc1ccc(CSC(=N)N)cc1[N+](=O)[O-]`, the IC50 was 86.8 µM.

Consider `COc1ccc2[nH]c3c(C)c4ccncc4c(C)c3c2c1`, for which the IC50 was 80.6 µM.

In the case of `O=C(N/N=C/c1ccc(O)cc1O)C(=O)N/N=C/c1ccc(O)cc1O`, the IC50 was 51 µM.

`CC(=O)NC(c1cccc([N+](=O)[O-])c1)c1ccc2cccnc2c1O` (configuration not stated): the IC50 was 72.5 µM.

On to `Cc1ccc(-c2csc(NC(=O)C[n+]3cc(-c4ccc(C)cc4)n4c3CCC4)n2)cc1`, for which the 50% inhibitory concentration (IC50) is 45.2 µM.

As to `O=[N+]([O-])c1cc(Cl)c(O)c2ncccc12`, the IC50 is 5.99 µM.

Consider `CCNC(=S)NNC(=O)c1ccccn1`, for which the half-inhibitory concentration (IC50) was 33.7 µM.

On to `CCn1cc(C(=O)O)c(=O)c2cc(F)c(N3CCN(C(=S)NC(=O)c4c(OC)cccc4OC)CC3)cc21`, for which the IC50 is 62.8 µM.

For the molecule `CCCCOc1ccc(Br)cc1CSC(=N)N`, the IC50 was 97.8 µM.

Consider `C[CH2][Hg][S]c1ccccc1C(=O)O`, for which the IC50 was 28.1 µM.

Take `O=C(C[n+]1cc(-c2ccc(Cl)cc2)n2c1CCC2)Nc1nc(-c2ccc(F)cc2)cs1`: the IC50 was 68.2 µM.

For the molecule `O=C1C(=O)c2ccccc2-c2ccccc21`, the IC50 is 87.3 µM.

On to `O=C(NC(CO)C(O)c1ccc([N+](=O)[O-])cc1)C(Cl)Cl` (configuration not stated), for which the IC50 is 9.17 µM.

In the case of `CC1COc2c(N3CCN(C)CC3)c(F)cc3c(=O)c(C(=O)O)cn1c23` (configuration not stated), the IC50 is 0.56 µM.

`Cc1ccc(C(C[N+](=O)[O-])c2c(N)n(C)c(=O)n(C)c2=O)cc1` (configuration not stated): the IC50 was 18.4 µM.

For `CCCOc1ccc(C(=O)NC(=S)N2CCN(c3cc4c(cc3F)c(=O)c(C(=O)O)cn4CC)CC2)cc1`, the concentration for half-maximal inhibition (IC50) was 18.6 µM.

Regarding `Cc1ccccc1OCc1n(CC(=O)OC2CC(C)CCC2C(C)C)c2ccccc2[n+]1C` (configuration not stated), the IC50 was 80.1 µM.

For the molecule `Fc1ccc(Nc2nc(NCc3ccco3)c3ccccc3n2)cc1`, the half-maximal inhibitory concentration (IC50) was 32.6 µM.

On to `CCn1cc(C(=O)O)c(=O)c2cc(F)c(N3CCN(C(=S)NC(=O)c4cccc(C)c4)CC3)cc21`, for which the IC50 is 25.4 µM.

Take `CCCCOc1ccc(CSC(=N)N)cc1[N+](=O)[O-]`: the IC50 is 131 µM.

Consider `Cc1ccc(Nc2nc(N)c3ccccc3n2)cc1Cl`, for which the IC50 was 74.4 µM.

In the case of `FC(F)(F)c1ccc2c(c1)N(CCCN1CCN(CCCl)CC1)c1ccccc1S2`, the IC50 was 146 µM.

For `CCOc1ccc(NC(=O)c2ccc(NC(=O)c3cn4c5c(c(N6CCN(C)CC6)c(F)cc5c3=O)OCC4C)cc2)cc1` (configuration not stated), the IC50 is 4.1 µM.

`COc1c(N2CCN(C(=S)Nc3ccccc3F)C(C)C2)c(F)cc2c(=O)c(C(=O)O)cn(C3CC3)c12` (configuration not stated): the half-maximal inhibitory concentration (IC50) was 2.31 µM.

On to `Cc1ccccc1Nc1cc(C)c2c(O)cccc2n1`, for which the IC50 is 88.2 µM.

In the case of `CC[n+]1c(/C=C/N(C)c2ccccc2)n(-c2ccccc2)c2ccc(-c3nc4ccccc4s3)cc21`, the IC50 is 21.8 µM.

Regarding `COC(=O)C1C(O)C(C)C(O)C(C)(O)/C=C\C=C(/C)C(=O)Nc2c(C)c(OC(C)=O)c3c(c2O)C(=O)C(C)=C2OCOC(=C23)/C(C)=C/C(C)(O)C(O)C(C)C1O` (configuration not stated), the IC50 was 18.6 µM.

Regarding `CO[C@H]1C=CO[C@@]2(C)Oc3c(C)c(O)c4c(O)c(c(C=NN5CCN(C)CC5)c(O)c4c3C2=O)NC(=O)C(C)=CC=C[C@H](C)[C@H](O)[C@@H](C)[C@@H](O)[C@@H](C)[C@H](OC(C)=O)[C@@H]1C`, the IC50 is 11.2 µM.

On to `COc1cc(/C=C/[N+](=O)[O-])ccc1O`, for which the IC50 was 65.1 µM.

Take `Cc1ccc(S(=O)(=O)Nc2cc(Cl)c(O)c3ncccc23)cc1`: the IC50 is 37.5 µM.

In the case of `CCn1cc(C(=O)O)c(=O)c2cc(F)c(N3CCNCC3)cc21`, the IC50 was 0.89 µM.

`Cc1ccc(C(=O)O)cc1N=Cc1cc(Br)cc(Br)c1O`: the 50% inhibitory concentration (IC50) is 105 µM.

As to `COc1cc([N+](=O)[O-])cc(/C=N\NC(=O)C2COc3ccccc3O2)c1O` (configuration not stated), the IC50 is 141 µM.

Regarding `NC(Cc1cc(O)c(O)cc1O)C(=O)O` (configuration not stated), the IC50 was 93 µM.

`CCn1cc(C(=O)O)c(=O)c2cc(F)c(N3CCN(C(=O)Nc4ccccc4)CC3)cc21`: the concentration for half-maximal inhibition (IC50) was 27.7 µM.

Take `NC1=NC[C@H](Cc2ccc(O)cc2)N1CCCCC1CCCCC1`: the IC50 was 84.1 µM.

For the molecule `O=C(C[n+]1cccc(CNC(=O)c2ccc(OC(F)F)cc2)c1)Nc1ccc(SC(F)F)cc1`, the IC50 was 96.3 µM.

Take `Oc1c(CN2CCN(c3ccc(F)cc3)CC2)cc(Cl)c2cccnc12`: the IC50 is 32 µM.

Turning to `Cc1scc(C(=O)N/N=C/c2ccc([N+](=O)[O-])o2)c1C`, the concentration for half-maximal inhibition (IC50) is 68.7 µM.

For the molecule `CCCCNC(=O)c1cn(CC)c2cc(N3CCN(C)CC3)c(F)cc2c1=O`, the half-inhibitory concentration (IC50) is 63.6 µM.

Turning to `CN(C)S(=O)(=O)c1cccc(NC(=S)N/N=C/c2cc(Br)ccc2O)c1`, the IC50 is 54.7 µM.

Turning to `CN(C)c1ccc(O)c2c1CC1CC3[C@@H](N(C)C)C(=O)C(C(N)=O)=C(O)[C@]3(O)C(=O)C1=C2O` (some centres not stated), the IC50 was 1.54 µM.

Consider `CCn1cc(C(=O)O)c(=O)c2cc(F)c(N3CCN(C(=S)NC(=O)c4cccc(F)c4)CC3)cc21`, for which the IC50 was 35.1 µM.

Turning to `Cc1[nH]n(-c2ccccc2)c(=O)c1/C=N/Nc1nncc(-c2ccccc2)n1`, the IC50 was 22.1 µM.

On to `Cc1cc2nc3ccc(=[N+](C)C)cc-3sc2cc1N`, for which the IC50 was 32.4 µM.

For the molecule `C/C(=N\NC(=O)c1cc2ccccc2cc1O)c1ccccn1`, the IC50 was 31.9 µM.

As for `COc1ccc(CNC[C@@H](CCCCN(C)Cc2ccc(OC)cc2)N2C[C@H](c3ccccc3)N(CCc3ccc(Cl)c(Cl)c3)C(=O)C2=O)cc1`, the IC50 is 108 µM.

On to `CCn1cc(C(=O)O)c(=O)c2cc(F)c(N3CCN(C(=S)Nc4ccccc4OC)CC3)cc21`, for which the IC50 was 22 µM.

In the case of `CN1CCN(C(c2ccc(C(F)(F)F)cc2)c2cc(Cl)c3cccnc3c2O)CC1` (configuration not stated), the IC50 is 30.2 µM.

Turning to `CCn1cc(C(=O)O)c(=O)c2cc(F)c(N3CCN(C(=S)NC(=O)c4ccccc4)CC3)cc21`, the 50% inhibitory concentration (IC50) is 13.8 µM.

Take `Cc1cccc(Nc2nc(NCc3ccco3)c3ccccc3n2)c1`: the IC50 was 37.9 µM.

Take `Cc1cc(C(=O)N/N=C/c2cc(Br)cc([N+](=O)[O-])c2O)c2ccccc2n1`: the IC50 was 93.5 µM.

Consider `CCCCCCCCCn1c2c(c(=N)c3c1CCC3)CCCC2`, for which the IC50 is 53.8 µM.

As to `CN(C)CCCNc1cc(C(C)(C)C)nc2c(-c3ccccc3)cnn12`, the IC50 was 83.5 µM.

Consider `O=c1[nH]c2ccccc2n2c(=S)[nH]nc12`, for which the IC50 was 29.1 µM.

On to `COc1ccc(OCC(O)CNc2ccc(Br)cc2)cc1` (configuration not stated), for which the IC50 was 20 µM.

With `C/C(=C\C(=O)OCCCCCCCCC(=O)O)C[C@@H]1OC[C@H](C[C@@H]2O[C@H]2[C@@H](C)[C@H](C)O)[C@@H](O)[C@H]1O`, the IC50 is 14.1 µM.

Take `Cc1nc2c(=O)n(C)c(=O)nc-2n(C)n1`: the IC50 is 0.6 µM.

As to `c1ccc2c(NC3=NCCS3)cccc2c1`, the IC50 was 112 µM.

With `Cc1ccc(C(=O)Sc2cccccc2=O)cc1`, the IC50 was 16.5 µM.

Take `O=C(N/N=C/c1cc([N+](=O)[O-])ccc1O)C1CC1`: the IC50 was 45.2 µM.

`C[C@H]1O[C@@H](n2cc(F)c(=O)[nH]c2=O)[C@H](O)[C@@H]1O`: the half-maximal inhibitory concentration (IC50) is 11.8 µM.

As to `C(=N\Nc1ccccn1)/c1cccnc1`, the IC50 was 62.2 µM.

Consider `O=[N+]([O-])c1cc(CN2CCOCC2)c2cccnc2c1O`, for which the 50% inhibitory concentration (IC50) is 64.3 µM.

In the case of `CCCCCCCSc1cc(OC)c(CCNC)cc1OC`, the IC50 is 71.8 µM.

Regarding `OCCNCc1c(OCc2ccc(Cl)cc2)ccc2ccccc12`, the IC50 was 105 µM.

As for `NC1=NC[C@@H](Cc2ccc(O)cc2)N1CCCCC1CCCCC1`, the IC50 was 40.2 µM.

In the case of `C#CCOCCOCCOCCNc1nc(N2CCN(C(=O)CCCCCCCCCCNC(=O)[C@H]([C@@H](C)CC)n3cc(CCCCN=C(N)N)nn3)CC2)nc(N2CCN(C(=O)CCCCCCCCCCNC(=O)[C@H](CCCN=C(N)N)n3cc(C[C@@H](C)CC)nn3)CC2)n1`, the half-inhibitory concentration (IC50) was 30.6 µM.

Turning to `O=C(c1cccs1)c1no[n+]([O-])c1C(=O)c1cccs1`, the IC50 is 13 µM.

In the case of `CC(Cc1ccccc1)NCc1ccccc1O` (configuration not stated), the IC50 was 63.8 µM.

For the molecule `O=[N+]([O-])c1cc(CN2CCCC2)c2cccnc2c1O`, the IC50 was 57.1 µM.

Regarding `Cc1cc(SCC(=O)N/N=C/c2ccc(O)c(O)c2O)c(C)cc1Br`, the IC50 was 22.8 µM.

Take `Cc1ccc(S(=O)(=O)/N=C2/C=C(Sc3ncn[nH]3)C(=O)c3ccccc32)c(C)c1`: the IC50 is 56.1 µM.

As to `CC[C@H]1OC(=O)[C@H](C)[C@@H](O[C@H]2C[C@@](C)(OC)[C@@H](O)[C@H](C)O2)[C@H](C)[C@@H](O[C@@H]2O[C@H](C)C[C@H](N(C)C)[C@H]2O)[C@](C)(O)C[C@@H](C)[C@@H]2N[C@@H](COCCOC)O[C@H]([C@H]2C)[C@]1(C)O`, the half-maximal inhibitory concentration (IC50) is 22.6 µM.

Regarding `CCN1CCN(C(c2ccc(C(F)(F)F)cc2)c2ccc3cccnc3c2O)CC1` (configuration not stated), the IC50 is 46.1 µM.

As for `CC(C(=O)NC1C=CS(=O)(=O)C1)N1C(=O)/C(=C/c2ccc(Cl)cc2)SC1=S` (configuration not stated), the IC50 was 141 µM.

Turning to `CC(C(=O)c1ccc(-c2ccccc2)cc1)[n+]1cccc(NC(=O)c2ccccc2)c1` (configuration not stated), the IC50 is 106 µM.

As to `CCOC(=O)c1ccc(-c2ccc(C3Nc4ccccc4C(=O)N3O)o2)cc1` (configuration not stated), the IC50 is 112 µM.
